Patent publication EP4818152A1, “METHOD FOR PREPARING L-SERINE HYDROCHLORIDE AND USE THEREOF” (Astrogen, Inc., priority 2023, dated 2025)
Where two headings read alike, the source gives them in different places.

Columns and labels:
[1] = tested on: valproic acid (VPA)-induced autism model mice; assay: Three-chamber test of social interaction in VPA-induced autism model mice; format: in vivo; conditions: oral, 14 days from day 21 after birth; 3-chamber test 35 days after birth; versus vehicle-treated VPA mice
Procedure: In order to perform a behavioral experiment on valproic acid (VPA)-induced autism model mice using L-serine hydrochloride prepared in Example 3, 600 mg/kg of VPA dissolved in 0.9% NaCl saline was administered subcutaneously to pregnant dams to obtain 14 VPA-induced autism model mice. Meanwhile, 8 pups born to the dams that were not administered VPA were used as a control group. […] The drug was orally administered at a dose of 10 mL/kg per day based on the individual's body weight, which is equivalent, on a molar basis, to administering 400 mg/kg of L-serine hydrochloride to humans.
Thirty-five days after birth, the mice's social interaction abilities were tested using a three-chamber test. Social novelty was evaluated based on the interaction time during an initial encounter with a novel mouse compared with a re-encounter with a familiar mouse. Sociability reflects the degree of social interaction between a mouse and another mouse, and was measured by evaluating the interaction time that the mouse spent interacting with another mouse located in one side of an empty chmber.

[2] = Storage stability in aqueous solution (discoloration, precipitation); format: physicochemical; conditions: stored in an aqueous solution at room temperature for one month
[3] = Mouse PK experiment (serum levels by LC-MS/MS)
Procedure: (§1) -6, -4, -2, and 0 hours before drug administration and 0.25, 0.5, 1, 3, 6, 9, and 12 hours after drug administration, the experimental mice were placed in a restrainer, a 2 mm incision was made at the tip of the tail, and about 40-50 µL of blood was collected into a heparin capillary tube while massaging the tail. […] Blood samples were transferred to 2 mL tubes and centrifuged at 2000× g for 10 minutes to separate the serum, which was then transferred to new tubes at about 20-25 µL per sample. […] The internal standard D, L-serine-2,3,3-d3 stock solution was prepared at a concentration of 60 µg/mL for preparing a calibration curve and at 2 µg/mL for spiking into samples. To prepare the reagents required for creating the calibration curve, 10 µL of the diluted stock solution and 10 µL of the internal standard solution (D, L-serine-2,3,3-d3, 60 µg/mL) were spiked into 980 µL of a solvent with a ratio of acetonitrile/water/trifluoroacetic acid (v/v/v, 96/5/0.5). […] The mixed solution was centrifuged at 16,000 g for 10 minutes, and the supernatant was separated and injected into LC-MS/MS at a volume of 5 µL. The ultra-high-performance liquid chromatography system consisted of a pump (LC-40D X3), an autosampler (SIL-40CX3), a column oven (CTO-40C), and a system controller (SCL-40) from Shimadzu (Duisburg, Germany), and the mass spectrometer used was a QTRQP LC-MS/MS 6500+ from SCIEX (Framingham, MA, USA). The column used was a CROWNPAK CR-I (+) [3.0 x 150 mm, 5 micron] from DAICEL (Osaka, Tokyo), and the column oven was set to 30°C. Acetonitrile/water/trifluoroacetic acid (v/v/v, 96/5/0.5) was used as the mobile phase, and the elution was performed under isocratic conditions. Mass spectrometry detection was performed under multiple reaction monitoring (MRM) conditions in ESI+ mode. MS/MS parameters were ion spray voltage, 5500 V; temperature 500°C; curtain gas, 30 psi; ion source gas (GS1), 50 psi, ion source gas (GS2), 50 psi. The declustering potential (DP), entrance potential (EP), collision energy (CE), and collision cell exit potential (CXP) values under MRM conditions were optimized in manual tuning mode using a syringe infusion pump, and mass spectrometric analysis was performed. Data acquisition and processing were performed using AB SCIEX Analyst software.

[4] = mouse, in vivo
Procedure: as §1

in vivo = conditions: mouse
Procedure: as §1

SMILES	sociability [1]	social novelty [1]	discoloration or precipitation [2]	Cl/F ([3]; mouse PK, serum)	AUC(0-t) ([3]; mouse, in vivo)	Cmax ([3]; mouse, in vivo)	Tmax ([3]; mouse, in vivo)	half-life ([3]; mouse, in vivo)	Cl/F [4]	AUC(0-t) (in vivo)	Cmax (in vivo)	Tmax (in vivo)	half-life (in vivo)
Cl.N[C@@H](CO)C(=O)O [L-Serine Hydrochloride (Example 3), L-serine hydrochloride]	statistically significant improvements	statistically significant improvements	no discoloration or precipitation occurred	3.77±0.94 (mg/kg)/(µg/mL)/h	141 ± 37.4 µg·h/mL	77.7 ± 8.49 µg/mL	37.2 min	108 ± 16.2 min					
N[C@@H](CO)C(=O)O [L-Serine, L-serine]									4.92±1.20 (mg/kg)/(µg/mL)/h	81.5 ± 22.5 µg·h/mL	67.5 ± 25.9 µg/mL	15 min	72.6 ± 28.8 min
